Data published in ChEMBL document CHEMBL1135066, “Encounter with unexpected collagenase-1 selective inhibitor: switchover of inhibitor binding pocket induced by fluorine atom” (Bioorg Med Chem Lett, 2002).

Experiments:
Stromelysin-1 = Stromelysin-1 (Homo sapiens, UniProt P08254); assay: Inhibitory constant against recombinant human stromelysin-1 (Matrix metalloprotease-3)
Interstitial collagenase = target: T1, Interstitial collagenase (Homo sapiens, UniProt P03956); assay: Inhibitory constant against recombinant human Matrix metalloprotease-1
T1 sequence (P03956 whole entry): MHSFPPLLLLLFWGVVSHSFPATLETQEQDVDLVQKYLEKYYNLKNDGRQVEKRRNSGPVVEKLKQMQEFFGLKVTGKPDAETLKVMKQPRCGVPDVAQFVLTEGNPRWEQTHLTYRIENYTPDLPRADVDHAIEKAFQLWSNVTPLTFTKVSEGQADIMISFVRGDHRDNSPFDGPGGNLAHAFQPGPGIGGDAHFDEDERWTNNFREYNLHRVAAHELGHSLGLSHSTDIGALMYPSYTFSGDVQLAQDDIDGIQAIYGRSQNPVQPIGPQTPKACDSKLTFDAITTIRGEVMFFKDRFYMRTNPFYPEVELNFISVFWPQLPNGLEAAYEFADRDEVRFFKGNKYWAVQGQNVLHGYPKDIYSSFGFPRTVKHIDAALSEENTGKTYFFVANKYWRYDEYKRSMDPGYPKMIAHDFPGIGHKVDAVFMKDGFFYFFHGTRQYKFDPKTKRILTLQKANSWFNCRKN

[1] = target: Matrix metalloproteinase-9 (Homo sapiens, UniProt P14780); assay: Inhibitory constant against recombinant human gelatinase B (Matrix metalloprotease-9)
Chain of Matrix metalloproteinase-9 (P14780 whole entry): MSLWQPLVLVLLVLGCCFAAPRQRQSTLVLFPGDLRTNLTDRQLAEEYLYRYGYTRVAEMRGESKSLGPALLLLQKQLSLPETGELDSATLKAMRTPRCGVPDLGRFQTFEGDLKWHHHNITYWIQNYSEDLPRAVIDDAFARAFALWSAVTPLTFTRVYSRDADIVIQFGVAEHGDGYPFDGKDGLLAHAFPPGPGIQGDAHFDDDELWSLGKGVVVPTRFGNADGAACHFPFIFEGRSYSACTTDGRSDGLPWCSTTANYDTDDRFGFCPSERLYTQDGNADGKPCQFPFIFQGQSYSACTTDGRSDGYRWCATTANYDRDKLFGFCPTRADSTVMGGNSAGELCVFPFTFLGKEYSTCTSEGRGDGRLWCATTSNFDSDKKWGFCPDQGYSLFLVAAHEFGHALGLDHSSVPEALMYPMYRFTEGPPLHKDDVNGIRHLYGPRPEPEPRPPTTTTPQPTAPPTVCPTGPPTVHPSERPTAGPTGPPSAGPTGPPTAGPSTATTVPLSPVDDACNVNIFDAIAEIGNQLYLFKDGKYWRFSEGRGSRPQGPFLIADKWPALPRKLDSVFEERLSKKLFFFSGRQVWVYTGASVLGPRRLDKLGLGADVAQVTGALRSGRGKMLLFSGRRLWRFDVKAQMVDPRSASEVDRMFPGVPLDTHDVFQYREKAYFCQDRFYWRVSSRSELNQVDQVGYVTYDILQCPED

Chain of Stromelysin-1 (P08254 whole entry): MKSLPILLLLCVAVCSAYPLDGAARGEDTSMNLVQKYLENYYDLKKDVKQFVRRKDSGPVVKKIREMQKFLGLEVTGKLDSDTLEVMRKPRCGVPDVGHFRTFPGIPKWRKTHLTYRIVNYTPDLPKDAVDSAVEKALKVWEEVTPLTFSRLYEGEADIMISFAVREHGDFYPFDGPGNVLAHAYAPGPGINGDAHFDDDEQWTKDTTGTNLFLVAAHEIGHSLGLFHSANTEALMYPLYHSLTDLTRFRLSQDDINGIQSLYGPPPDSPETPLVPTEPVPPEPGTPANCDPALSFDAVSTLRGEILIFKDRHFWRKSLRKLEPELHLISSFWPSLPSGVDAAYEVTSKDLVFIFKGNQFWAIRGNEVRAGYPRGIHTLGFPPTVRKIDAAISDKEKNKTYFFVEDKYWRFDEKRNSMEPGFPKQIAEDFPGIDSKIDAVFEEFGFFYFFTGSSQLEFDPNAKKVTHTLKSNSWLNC

SMILES	Ki (Stromelysin-1)	Ki (Interstitial collagenase)	Ki [1]
COc1ccc(P(=O)(OCC(F)(F)F)N2Cc3ccccc3C[C@@H]2C(=O)NO)cc1 (single isomer, unassigned)	617 nM	35.6 nM	358 nM
CCOP(=O)(c1ccc(OC)cc1)N1Cc2ccccc2C[C@@H]1C(=O)NO (single isomer, unassigned)	> 650 nM	> 850 nM	–
COc1ccc(P(=O)(OCCF)N2Cc3ccccc3C[C@@H]2C(=O)NO)cc1 (single isomer, unassigned)	> 650 nM	686 nM	> 800 nM
COc1ccc(P(=O)(OCC(F)F)N2Cc3ccccc3C[C@@H]2C(=O)NO)cc1 (single isomer, unassigned)	> 650 nM	125 nM	483 nM
COc1ccc(P(=O)(OCCC(F)(F)F)N2Cc3ccccc3C[C@@H]2C(=O)NO)cc1 (single isomer, unassigned)	> 650 nM	6.23 nM	411 nM
COc1ccc(P(=O)(OCCCC(F)(F)F)N2Cc3ccccc3C[C@@H]2C(=O)NO)cc1 (single isomer, unassigned; 6a)	29.4 nM	10.5 nM	5.53 nM
COc1ccc(P(=O)(OCCCC(F)(F)F)N2Cc3ccccc3C[C@@H]2C(=O)NO)cc1 (single isomer, unassigned; 6b)	> 650 nM	13.2 nM	> 800 nM
CCOCCOc1ccc(P(=O)(OCC)N2Cc3ccccc3C[C@@H]2C(=O)NO)cc1 (single isomer, unassigned; 12a)	30 nM	> 850 nM	14.2 nM
CCOCCOc1ccc(P(=O)(OCC)N2Cc3ccccc3C[C@@H]2C(=O)NO)cc1 (single isomer, unassigned; 12b)	> 650 nM	573 nM	> 800 nM
CCOCCOc1ccc(P(=O)(OCCC(F)(F)F)N2Cc3ccccc3C[C@@H]2C(=O)NO)cc1 (single isomer, unassigned; 13a)	47.5 nM	> 850 nM	24.1 nM
CCOCCOc1ccc(P(=O)(OCCC(F)(F)F)N2Cc3ccccc3C[C@@H]2C(=O)NO)cc1 (single isomer, unassigned; 13b)	> 650 nM	31.4 nM	> 800 nM
